Test results published in patent US12606568B2, “SMARCA degraders and uses thereof” (Kymera Therapeutics, Inc., priority 2020, dated 2026).

Key:
Type in all cases: cell-based
[1] = molecular target: T1, SMARCA2 (Homo sapiens, UniProt P51531); assay: SMARCA2 Western blot MV4-11 degradation; parameters: SMARCA2 and SMARCA4 protein degradation in MV4-11 cells; endogenous in cells; host or cells: MV4-11; details: for Dmax: MV4-11, MV4-11 cells, read-out: SMARCA2 MSD MV411 degradation 24 h: average Dmax %; for Dmax / DC50: 24 h; for DC50 / SMARCA2 MSD MV411 degradation 24 h: average Dmax %: MV4-11 cells; for DC50: read-out: SMARCA2 MSD MV411 degradation 24 h: Mean external-Abs DC50
T1 sequence (P51531 whole entry): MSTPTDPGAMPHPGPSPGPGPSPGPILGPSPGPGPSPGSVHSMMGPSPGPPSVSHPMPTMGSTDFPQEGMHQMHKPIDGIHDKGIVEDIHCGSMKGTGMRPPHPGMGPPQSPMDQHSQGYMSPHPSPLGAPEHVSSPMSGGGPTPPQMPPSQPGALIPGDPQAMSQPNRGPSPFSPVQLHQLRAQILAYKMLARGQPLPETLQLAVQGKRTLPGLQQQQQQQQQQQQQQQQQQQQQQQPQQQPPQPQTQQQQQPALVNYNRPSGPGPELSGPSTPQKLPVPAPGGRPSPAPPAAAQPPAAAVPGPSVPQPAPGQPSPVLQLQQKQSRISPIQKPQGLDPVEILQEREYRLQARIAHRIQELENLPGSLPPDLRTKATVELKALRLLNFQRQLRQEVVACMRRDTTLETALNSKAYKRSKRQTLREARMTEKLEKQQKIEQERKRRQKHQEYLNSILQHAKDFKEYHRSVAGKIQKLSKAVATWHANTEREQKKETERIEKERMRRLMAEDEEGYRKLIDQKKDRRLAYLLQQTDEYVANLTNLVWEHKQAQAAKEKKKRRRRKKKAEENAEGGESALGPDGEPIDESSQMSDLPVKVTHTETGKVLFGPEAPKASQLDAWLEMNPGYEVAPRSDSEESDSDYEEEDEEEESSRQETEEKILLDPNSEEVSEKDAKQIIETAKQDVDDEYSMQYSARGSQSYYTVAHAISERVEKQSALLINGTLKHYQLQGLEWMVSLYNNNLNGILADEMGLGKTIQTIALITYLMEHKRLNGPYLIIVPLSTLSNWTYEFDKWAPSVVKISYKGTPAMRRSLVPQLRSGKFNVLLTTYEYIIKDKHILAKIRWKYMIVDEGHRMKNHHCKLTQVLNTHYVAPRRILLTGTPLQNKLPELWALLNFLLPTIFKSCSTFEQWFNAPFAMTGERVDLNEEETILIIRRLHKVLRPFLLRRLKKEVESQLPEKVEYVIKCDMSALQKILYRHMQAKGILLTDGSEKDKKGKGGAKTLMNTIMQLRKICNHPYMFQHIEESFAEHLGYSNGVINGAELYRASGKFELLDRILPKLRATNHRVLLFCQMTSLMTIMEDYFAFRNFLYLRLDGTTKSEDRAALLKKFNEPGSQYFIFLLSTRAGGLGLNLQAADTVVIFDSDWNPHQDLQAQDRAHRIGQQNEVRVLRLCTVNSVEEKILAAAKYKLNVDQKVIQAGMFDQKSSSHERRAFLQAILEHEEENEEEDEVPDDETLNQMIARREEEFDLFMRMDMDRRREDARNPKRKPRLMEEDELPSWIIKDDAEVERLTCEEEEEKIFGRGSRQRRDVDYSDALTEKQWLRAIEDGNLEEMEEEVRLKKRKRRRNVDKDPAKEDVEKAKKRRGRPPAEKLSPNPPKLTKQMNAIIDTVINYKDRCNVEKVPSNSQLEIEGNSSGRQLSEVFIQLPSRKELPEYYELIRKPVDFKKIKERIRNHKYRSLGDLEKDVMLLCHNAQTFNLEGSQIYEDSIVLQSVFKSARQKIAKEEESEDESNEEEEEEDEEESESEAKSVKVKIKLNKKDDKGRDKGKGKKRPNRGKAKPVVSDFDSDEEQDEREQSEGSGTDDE

[2] = molecular target: T1, SMARCA2; assay: MSD SMARCA2 degradation in A549 cell line; parameters: endogenous in cells; details: for Dmax: A549, A549 cells; for Dmax / DC50: 24 h; for DC50 / SMARCA2 MSD A549 degradation 24 h: Average Dmax %: A549 cells; for DC50: read-out: SMARCA2 MSD A549 degradation 24 h: Average external-Abs DC50
Summary of the method: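 A549 cells treated 24 h with compound, 3-fold series 1000 nM down to 0.152 nM plus DMSO. RIPA lysates captured on MSD plates, probed with rabbit anti-SMARCA2/BRM (1 µg/ml) then SULFO-TAG anti-rabbit, electrochemiluminescence read. DC50 and 24 h Dmax reported as letter bins.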

[3] = molecular target: T2, SMARCA4 (Homo sapiens, UniProt P51532); assay: SMARCA4 Western blot MV4-11 degradation; details: for Dmax: MV4-11, MV4-11 cells, read-out: SMARCA4 MSD MV411 degradation 24 h: average Dmax %; for Dmax / DC50: 24 h; for DC50 / SMARCA4 MSD MV411 degradation 24 h: average Dmax %: MV4-11 cells; for DC50: read-out: SMARCA4 MSD MV411 degradation 24 h: Mean external-Abs DC50
T2 construct: SMARCA2 and SMARCA4 protein degradation in MV4-11 cells; endogenous in cells; host or cells: MV4-11
T2 sequence (P51532 whole entry): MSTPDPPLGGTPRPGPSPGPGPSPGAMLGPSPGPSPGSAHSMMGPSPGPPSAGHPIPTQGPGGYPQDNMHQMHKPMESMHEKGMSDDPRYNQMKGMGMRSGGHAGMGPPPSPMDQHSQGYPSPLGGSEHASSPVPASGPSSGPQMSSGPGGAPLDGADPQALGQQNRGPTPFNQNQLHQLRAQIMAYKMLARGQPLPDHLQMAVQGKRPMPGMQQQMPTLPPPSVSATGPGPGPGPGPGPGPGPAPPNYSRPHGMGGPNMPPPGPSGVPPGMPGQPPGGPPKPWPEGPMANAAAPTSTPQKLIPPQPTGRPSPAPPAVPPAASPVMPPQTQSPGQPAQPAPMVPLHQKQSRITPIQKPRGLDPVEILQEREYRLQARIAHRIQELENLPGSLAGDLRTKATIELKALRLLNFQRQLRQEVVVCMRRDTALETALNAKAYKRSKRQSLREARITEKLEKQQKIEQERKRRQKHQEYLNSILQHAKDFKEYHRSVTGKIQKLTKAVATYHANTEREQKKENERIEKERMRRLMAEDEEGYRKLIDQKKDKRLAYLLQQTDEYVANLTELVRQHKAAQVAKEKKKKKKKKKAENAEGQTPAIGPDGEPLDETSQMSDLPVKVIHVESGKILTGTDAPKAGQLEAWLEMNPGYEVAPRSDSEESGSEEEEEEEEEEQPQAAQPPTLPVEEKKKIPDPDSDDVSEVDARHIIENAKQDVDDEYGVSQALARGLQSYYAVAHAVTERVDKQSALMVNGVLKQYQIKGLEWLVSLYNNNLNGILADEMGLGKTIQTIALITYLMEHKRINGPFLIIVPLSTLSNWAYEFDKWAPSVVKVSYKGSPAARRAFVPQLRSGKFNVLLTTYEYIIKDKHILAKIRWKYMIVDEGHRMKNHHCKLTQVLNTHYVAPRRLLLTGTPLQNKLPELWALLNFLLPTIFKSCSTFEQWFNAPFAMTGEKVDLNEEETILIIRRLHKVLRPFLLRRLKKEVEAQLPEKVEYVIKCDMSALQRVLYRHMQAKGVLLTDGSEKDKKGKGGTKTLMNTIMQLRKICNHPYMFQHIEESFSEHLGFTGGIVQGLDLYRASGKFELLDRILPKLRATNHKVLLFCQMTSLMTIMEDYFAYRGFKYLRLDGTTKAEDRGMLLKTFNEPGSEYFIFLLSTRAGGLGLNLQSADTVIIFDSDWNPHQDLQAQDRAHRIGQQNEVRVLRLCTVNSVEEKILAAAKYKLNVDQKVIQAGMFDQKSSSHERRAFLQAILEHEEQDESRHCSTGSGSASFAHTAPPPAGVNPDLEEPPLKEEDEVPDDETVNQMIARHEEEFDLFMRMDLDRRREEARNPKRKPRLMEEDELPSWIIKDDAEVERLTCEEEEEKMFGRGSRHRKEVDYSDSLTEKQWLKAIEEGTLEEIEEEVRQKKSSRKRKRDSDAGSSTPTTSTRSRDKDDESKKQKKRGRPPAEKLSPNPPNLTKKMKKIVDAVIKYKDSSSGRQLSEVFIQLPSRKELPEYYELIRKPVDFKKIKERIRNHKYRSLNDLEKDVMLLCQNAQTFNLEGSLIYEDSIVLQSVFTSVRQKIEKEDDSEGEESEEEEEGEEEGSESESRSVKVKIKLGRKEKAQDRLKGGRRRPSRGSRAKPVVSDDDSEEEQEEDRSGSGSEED

| Structure (SMILES) | Dmax [1] [%] | DC50 [1] [nM] | Dmax [2] [%] | Dmax [3] [%] | DC50 [3] [nM] | DC50 [2] [nM] | SMARCA2 MSD MV411 degradation 24 h: average Dmax % [1] | SMARCA2 MSD A549 degradation 24 h: Average Dmax % [2] | SMARCA4 MSD MV411 degradation 24 h: average Dmax % [3] |
| --- | --- | --- | --- | --- | --- | --- | --- | --- | --- |
| Cc1nccn1-c1ccc(CNC(=O)[C@@H]2C[C@@H](O)CN2C(=O)[C@@H](NC(=O)[C@H]2CC3(C2)C[C@H](N2CCC(c4cnc(N5C6CCC5CN(c5cc(-c7ccccc7O)nnc5N)C6)nc4)CC2)C3)C(C)(C)C)cc1 (stereo partly drawn) [I-33, (2S,4R)-1-((2S)-2-(6-(4-(2-(3-(3-amino-6-(2-hydroxyphenyl)pyridazin-4-yl)-3,8-diazabicyclo[3.2.1]octan-8-yl)pyrimidin-5-yl)piperidin-1-yl)spiro[3.3]heptane-2-carboxamido)-3,3-dimethylbutanoyl)-4-hydroxy-N-(4-(2-methyl-1H-imidazol-1-yl)benzyl)pyrrolidine-2-carboxamide] | < 50 | 100 to 500 | < 50 | < 50 | > 1000 | – | – | – | – |
| Cn1nccc1-c1ccc(CNC(=O)[C@@H]2C[C@@H](O)CN2C(=O)[C@@H](NC(=O)[C@H]2CC3(C2)C[C@H](N2CCC(c4cnc(N5C6CCC5CN(c5cc(-c7ccccc7O)nnc5N)C6)nc4)CC2)C3)C(C)(C)C)cc1 (stereo partly drawn) [I-35, (2S,4R)-1-((2S)-2-(6-(4-(2-(3-(3-amino-6-(2-hydroxyphenyl)pyridazin-4-yl)-3,8-diazabicyclo[3.2.1]octan-8-yl)pyrimidin-5-yl)piperidin-1-yl)spiro[3.3]heptane-2-carboxamido)-3,3-dimethylbutanoyl)-4-hydroxy-N-(4-(1-methyl-1H-pyrazol-5-yl)benzyl)pyrrolidine-2-carboxamide] | 70 to 90 | < 100 | 70 to 90 | 50 to 70 | > 1000 | 100 to 500 | – | – | – |
| Cn1nccc1-c1ccc(CNC(=O)[C@@H]2C[C@@H](O)CN2C(=O)[C@@H](NC(=O)[C@H]2CC3(C2)C[C@H](N2CCC(c4cnc(N5C6CCC5CN(c5cc(-c7ccccc7O)nnc5N)C6)nc4)CC2)C3)C(C)(C)C)cc1 (stereo partly drawn) [I-36, (2S,4R)-1-((2S)-2-(6-(4-(2-(3-(3-amino-6-(2-hydroxyphenyl)pyridazin-4-yl)-3,8-diazabicyclo[3.2.1]octan-8-yl)pyrimidin-5-yl)piperidin-1-yl)spiro[3.3]heptane-2-carboxamido)-3,3-dimethylbutanoyl)-4-hydroxy-N-(4-(1-methyl-1H-pyrazol-5-yl)benzyl)-pyrrolidine-2-carboxamide] | – | < 100 | – | – | > 1000 | 100 to 500 | B (B (>70-90% degradation)) | B (B (>70-90% o degradation)) | D (D (<50% degradation)) |
| Cc1ncsc1-c1ccc(CNC(=O)[C@@H]2C[C@@H](O)CN2C(=O)[C@@H](NC(=O)CN(C)Cc2cnc(N3C4CCC3CN(c3cc(-c5ccccc5O)nnc3N)C4)nc2)C(C)(C)C)cc1 [I-37, (2S,4R)-1-((2S)-2-(2-(((2-(3-(3-amino-6-(2-hydroxyphenyl)pyridazin-4-yl)-3,8-diazabicyclo[3.2.1]octan-8-yl)pyrimidin-5-yl)methyl)(methyl)amino)acetamido)-3,3-dimethylbutanoyl)-4-hydroxy-N-(4-(4-methylthiazol-5-yl)benzyl)pyrrolidine-2-carboxamide] | > 90 | < 100 | > 90 | > 90 | < 100 | 501 to 1000 | – | – | – |
| Cc1ncsc1-c1ccc(CNC(=O)[C@@H]2C[C@@H](O)CN2C(=O)[C@@H](NC(=O)C2CC3(C2)CC(N2CCC(Oc4cc(N5C6CCC5CN(c5cc(-c7ccccc7O)nnc5N)C6)ccn4)CC2)C3)C(C)(C)C)cc1 (stereo partly drawn) [I-38, (2S,4R)-1-((2S)-2-(6-(4-((4-(3-(3-amino-6-(2-hydroxyphenyl)pyridazin-4-yl)-3,8-diazabicyclo[3.2.1]octan-8-yl)pyridin-2-yl)oxy)piperidin-1-yl)spiro[3.3]heptane-2-carboxamido)-3,3-dimethylbutanoyl)-4-hydroxy-N-(4-(4-methylthiazol-5-yl)benzyl)pyrrolidine-2-carboxamide] | < 50 | > 1000 | 70 to 90 | > 90 | > 1000 | > 1000 | – | – | – |
| Cc1ncsc1-c1ccc(CNC(=O)[C@@H]2C[C@@H](O)CN2C(=O)[C@@H](NC(=O)[C@H]2CC3(C2)C[C@H](N2CCC(Oc4ccc(N5C6CCC5CN(c5cc(-c7ccccc7O)nnc5N)C6)cn4)CC2)C3)C(C)(C)C)cc1 (stereo partly drawn) [I-39, (2S,4R)-1-((2S)-2-(6-(4-((5-(3-(3-amino-6-(2-hydroxyphenyl)pyridazin-4-yl)-3,8-diazabicyclo[3.2.1]octan-8-yl)pyridin-2-yl)oxy)piperidin-1-yl)spiro[3.3]heptane-2-carboxamido)-3,3-dimethylbutanoyl)-4-hydroxy-N-(4-(4-methylthiazol-5-yl)benzyl)pyrrolidine-2-carboxamide] | 70 to 90 | 100 to 500 | 50 to 70 | > 90 | > 1000 | > 1000 | – | – | – |
| Cc1ncsc1-c1ccc(CNC(=O)[C@@H]2C[C@@H](O)CN2C(=O)[C@@H](NC(=O)[C@H]2CC3(C2)C[C@H](N2CCC(Oc4ccc(N5C6CCC5CN(c5cc(-c7ccccc7O)nnc5N)C6)cn4)CC2)C3)C(C)(C)C)cc1 (some centres unmarked) [I-40] | – | < 100 | – | – | > 1000 | > 1000 | B (B (>70-90% degradation)) | B (B (>70-90% o degradation)) | A (A (>90% degradation)) |
| Cc1ncsc1-c1ccc(CNC(=O)[C@@H]2C[C@@H](O)CN2C(=O)[C@@H](NC(=O)C2CC3(C2)CC(N2CCC(COc4ccc(N5C6CCC5CN(c5cc(-c7ccccc7O)nnc5N)C6)cn4)CC2)C3)C(C)(C)C)cc1 (stereo partly drawn) [I-41, (2S,4R)-1-((2S)-2-(6-(4-(((5-(3-(3-amino-6-(2-hydroxyphenyl)pyridazin-4-yl)-3,8-diazabi-cyclo[3.2.1]octan-8-yl)pyridin-2-yl)oxy)methyl)piperidin-1-yl)spiro[3.3]heptane-2-carbox-amido)-3,3-dimethylbutanoyl)-4-hydroxy-N-(4-(4-methylthiazol-5-yl)benzyl)pyrrolidine-2-carboxamide] | < 50 | > 1000 | 50 to 70 | > 90 | > 1000 | > 1000 | – | – | – |
| Cc1ncsc1-c1ccc(CNC(=O)[C@@H]2C[C@@H](O)CN2C(=O)[C@@H](NC(=O)[C@H]2CCC3(CC2)C[C@H](N2CCC(c4cnc(N5C6CCC5CN(c5cc(-c7ccccc7O)nnc5N)C6)nc4)CC2)C3)C(C)(C)C)cc1 (stereo partly drawn) [I-42, (2S,4R)-1-((2S)-2-(2-(4-(2-(3-(3-amino-6-(2-hydroxyphenyl)pyridazin-4-yl)-3,8-diazabicyclo[3.2.1]octan-8-yl)pyrimidin-5-yl)piperidin-1-yl)spiro[3.5]nonane-7-carboxamido)-3,3-dimethylbutanoyl)-4-hydroxy-N-(4-(4-methylthiazol-5-yl)benzyl)pyrrolidine-2-carboxamide] | 70 to 90 | < 100 | 70 to 90 | < 50 | > 1000 | 100 to 500 | – | – | – |
| Cc1ncsc1-c1ccc(CNC(=O)[C@@H]2C[C@@H](O)CN2C(=O)[C@@H](NC(=O)[C@H]2CCC3(CC2)C[C@H](N2CCC(c4cnc(N5C6CCC5CN(c5cc(-c7ccccc7O)nnc5N)C6)nc4)CC2)C3)C(C)(C)C)cc1 (stereo partly drawn) [I-43, (2S,4R)-1-((2S)-2-(2-(4-(2-(3-(3-amino-6-(2-hydroxyphenyl)pyridazin-4-yl)-3,8-diazabicyclo[3.2.1]octan-8-yl)pyrimidin-5-yl)piperidin-1-yl)spiro[3.5]nonane-7-carboxamido)-3,3-dimethylbutanoyl)-4-hydroxy-N-(4-(4-methylthiazol-5-yl)benzyl)-pyrrolidine-2-carboxamide] | – | < 100 | – | – | > 1000 | 100 to 500 | – | – | – |
| Cc1ncsc1-c1ccc(CNC(=O)[C@@H]2C[C@@H](O)CN2C(=O)C(c2cc(OCCN3CCC(c4cnc(N5C6CCC5CN(c5cc(-c7ccccc7O)nnc5N)C6)nc4)CC3)no2)C(C)C)cc1 (stereo partly drawn) [I-50, (2S,4R)-1-(2-(3-(2-(4-(2-(3-(3-amino-6-(2-hydroxyphenyl)pyridazin-4-yl)-3,8-diazabicyclo[3.2.1]octan-8-yl)pyrimidin-5-yl)piperidin-1-yl)ethoxy)isoxazol-5-yl)-3-methylbutanoyl)-4-hydroxy-N-(4-(4-methylthiazol-5-yl)benzyl)pyrrolidine-2-carboxamide] | > 90 | < 100 | > 90 | > 90 | < 100 | < 100 | – | – | – |
| Cc1ncsc1-c1ccc(CNC(=O)[C@@H]2C[C@@H](O)CN2C(=O)[C@H](c2cc(OCCCN3CCC(c4cnc(N5C6CCC5CN(c5cc(-c7ccccc7O)nnc5N)C6)nc4)CC3)no2)C(C)C)cc1 [I-52, (2S,4R)-1-((2S)-2-(3-(3-(4-(2-(3-(3-amino-6-(2-hydroxyphenyl)pyridazin-4-yl)-3,8-diazabicyclo[3.2.1]octan-8-yl)pyrimidin-5-yl)piperidin-1-yl)propoxy)isoxazol-5-yl)-3-methylbutanoyl)-4-hydroxy-N-(4-(4-methylthiazol-5-yl)benzyl)pyrrolidine-2-carboxamide] | > 90 | < 100 | > 90 | > 90 | < 100 | < 100 | – | – | – |
